Test results from PMC4640066 (Nature Communications, 2015).

Key:
[1] = tested on: γ-tubulin-dependent, RanQ69L-stimulated aster formation; assay: RanQ69L-stimulated aster formation in M-phase Xenopus egg extracts; assay type: biochemical
Method: Cytostatic factor (CSF)-arrested M phase Xenopus egg extracts (CSF extracts) were prepared. Briefly, unfertilized eggs were crushed by 10,700g centrifugation for 20 min. M phase extracts were mixed with 0.5 μM Cy3-labelled α/β-tubulin and various concentrations of compounds. After incubation for 30 min on ice, 15 μM RanQ69L, 200 sperm nuclei per μl or 5% DMSO were added and incubated for 30 min on ice. After incubation for 20 min at 20 °C (for the samples with sperm nuclei, the incubation time was 30 min), 1.5 μl sample was fixed with 1.5 μl fix solution (0.3 volume of 37% formaldehyde, 0.6 volume of 80% glycerol and 0.1 vol of 10 × MMR solution (50 mM HEPES, pH 7.8, 1 M NaCl, 20 mM KCl, 10 mM MgCl2, 20 mM CaCl2 and 1 mM EDTA)), followed by the squash fix.
Images were acquired using a microscope (Axiovert 200 M; Carl Zeiss Inc.) equipped with a plan-Apochromat × 63 NA 1.3 oil objective lens (Carl Zeiss Inc.), a Cy3 emission filter and a Cascade:1 K (Photometrics Inc.) camera, and the AxioVision software (Carl Zeiss Inc.). The aster size and fluorescence intensity were quantified using a macro written in MATLAB[41].

[2] = tested on: HeLa cells; assay: Analysis of interphase MT network; assay type: cell-based, human; conditions: 100 μM, 2.5 h
Method: HeLa cells were cultured in DMEM containing 10% FBS in a humidified atmosphere containing 5% CO2. After treatment with each compound for 2.5 h (interphase MT network) or 5 h (mitotic spindle), the cells were immediately fixed with cold MeOH (−20 °C). After blocking with PBS containing 0.5% bovine serum albumin, cells were incubated with anti-α-tubulin antibodies (1:500 dilution, Santa Cruz, Cat# sc-32293) to observe interphase cells, or with anti-BubR1 (1:250 dilution, BD Bioscience, Cat# 612502) and anti-α-tubulin (1:250 dilution, MBL, Cat# PM054) antibodies to observe mitotic spindle. After staining with Alexa^488-conjugated anti-mouse IgG (1:2,000 dilution, Invitrogen, Cat#A11001) and Alexa568-conjugated anti-rabbit IgG (1:2000 dilution, Invitrogen, Cat#A11011), cells were washed four times with PBS and mounted with PBS containing 0.1 μg ml^−1 DAPI. MTs and BubR1 signals were observed under a Leica LAS AF 6000 fluorescence microscope (Leica Microsystems) or an LSM 700 laser-scanning confocal microscope (Zeiss).

[3] = tested on: HeLa cells; assay: Bipolar spindle establishment after STLC washout; assay type: cell-based, human; conditions: 30 μM, 2 h after STLC washout
Method: To analyse bipolar spindle establishment from monopolar spindles, HeLa cells were arrested at prometaphase with 10 μM of STLC for 15 h. STLC was removed by washing cells with the medium three times. After treatment with 1% DMSO or 30 μM of gatastatin for 2 h, cells were immediately fixed with cold MeOH (−20 °C).
Immunostaining was performed as described above using anti-α-tubulin (1:250 dilution, Santa Cruz, Cat# sc-32293) and anti-pericentrin (1:250 dilution, Abcam, Cat# ab4448) antibodies. Spindle structure was observed under a Leica LAS AF 6000 fluorescence microscope (Leica Microsystems). The measurement of spindle length was performed as described above.

[4] = tested on: HeLa cells; assay: Spindle length of MG132-arrested metaphase cells; assay type: cell-based, human; conditions: 30 μM, 2 h in the presence of MG132, HeLa
Method: Exponentially growing HeLa cells were treated with 30 μM of gatastatin for 9 h. Cells were fixed with cold MeOH (−20 °C). Immunostaining was performed as described above using anti-α-tubulin (1:250 dilution, Santa Cruz, Cat# sc-32293) and anti-pericentrin (1:250 dilution, Abcam, Cat# ab4448) antibodies. After staining with Alexa^488-conjugated anti-mouse IgG (1:2,000 dilution, Invitrogen, Cat#A11001) and Alexa^568-conjugated anti-rabbit IgG (1:2,000 dilution, Invitrogen, Cat#A11011), cells were washed four times with PBS and mounted with PBS containing 0.1 μg ml^−1 DAPI. Spindle structure was observed under a Leica LAS AF 6000 fluorescence microscope (Leica Microsystems). Images of 41 sections at 0.251-μm intervals were collected. The position of the two pericentrin signals of mitotic cells was analysed using the ImageJ software, and then their distance was calculated.
For analysis of the length of the bipolar spindle in MG132-treated cells, HeLa cells were arrested at prometaphase with 10 μM of STLC for 15 h, followed by STLC removal by washing the cells with the medium three times to remove STLC. […]
Immunostaining was performed as described above using anti-α-tubulin (1:250 dilution, Santa Cruz, Cat# sc-32293) and anti-pericentrin (1:250 dilution, Abcam, Cat# ab4448) antibodies. Spindle structure was observed under a Leica LAS AF 6000 fluorescence microscope (Leica Microsystems). […]

COc1cc2c(=O)c(-c3cc(OC)c4c(c3OC)OCO4)coc2cc1OCc1ccccc1 [Gatastatin, O^7-demethylbenzyl AG1]
IC50 ([1]; M-phase-arrested Xenopus egg extracts, 15 μM RanQ69L, 20 min at 20 °C): 9.7 µM
Effect on number of RanQ69L-dependent asters ([1]; Xenopus egg extracts): without changing the number of asters
Effect on interphase MT network [2]: did not obviously change the appearance of the interphase MT network
Cells unable to assemble a metaphase-like spindle on STLC washout [3]: 87%
Reduction of the length of the metaphase spindle compared with the control [4]: 22%
